Measured values as given in ChEMBL document CHEMBL5647694, “Novel orally bioavailable EZH1/2 dual inhibitors with greater antitumor efficacy than an EZH2 selective inhibitor” (Cancer Sci, 2017).

Assays:
[1] = tested on: CCRF-CEM; test: Antitumor activity against human CCRF-CEM cells assessed as cell growth inhibition treated for 10 to 15 days; assay type: functional; settings: time 10-15 day
[2] = tested on: NCI-H929; test: Antitumor activity against human NCI-H929 cells assessed as cell growth inhibition treated for 10 to 15 days; assay type: functional; settings: time 10-15 day
[3] = tested on: Raji; test: Antitumor activity against human Raji cells assessed as cell growth inhibition treated for 10 to 15 days; assay type: functional; settings: time 10-15 day
[4] = tested on: BT-549; test: Antitumor activity against human BT-549 cells assessed as cell growth inhibition treated for 10 to 15 days; assay type: functional; settings: time 10-15 day
[5] = target: Protein arginine N-methyltransferase 3 (Homo sapiens, UniProt O60678); test: Inhibition of human PRMT3 using Histone H4 and [3H]SAM as substrate incubated for 30 mins to 1 hr by HotSpot kinase assay
[6] = target: DNA (cytosine-5)-methyltransferase 3B (Homo sapiens, UniProt Q9UBC3); test: Inhibition of human DNMT3b using lambda DNA and [3H]SAM as substrate incubated for 30 mins to 1 hr by HotSpot kinase assay
[7] = target: CDK7/Cyclin H/MNAT1 (Homo sapiens) (UniProt P51946+P50613+P51948); test: Inhibition of N-terminal GST-tagged full length human CDK7 (1 to 346 residues)/human CyclinH (1 to 323 residues)/human MAT1 (1 to 309 residues) expressed in baculovirus-infected Sf21 cells using CTD3 peptide as substrate at 1 uM in presence of ATP by Mobility shift assay
[8] = target: Serine/threonine-protein kinase WNK1 (Homo sapiens) (UniProt Q9H4A3); test: Inhibition of N-terminal GST-fused human WNK1 catalytic domain (1 to 491 residues) expressed in baculovirus expression system using SPAKtide as substrate at 1 uM in presence of ATP by Mobility shift assay
[9] = tested on: Jurkat; test: Antitumor activity against human Jurkat cells clone E6-1 assessed as cell growth inhibition treated for 10 to 15 days; assay type: functional; settings: time 10-15 day
[10] = tested on: HL-60; test: Antitumor activity against human HL-60 cells assessed as cell growth inhibition treated for 10 to 15 days; assay type: functional; settings: time 10-15 day
[11] = tested on: NAMALVA; test: Antitumor activity against human NAMALVA cells assessed as cell growth inhibition treated for 10 to 15 days; assay type: functional; settings: time 10-15 day
[12] = tested on: Pfeiffer; test: Antitumor activity against human Pfeiffer cells assessed as cell growth inhibition treated for 10 to 15 days; assay type: functional; settings: time 10-15 day
[13] = tested on: SR; test: Antitumor activity against human SR cells assessed as cell growth inhibition treated for 10 to 15 days; assay type: functional; settings: time 10-15 day
[14] = tested on: JeKo-1; test: Antitumor activity against human JeKo-1 cells assessed as cell growth inhibition treated for 10 to 15 days; assay type: functional; settings: time 10-15 day
[15] = tested on: HH; test: Antitumor activity against human HH cells assessed as cell growth inhibition treated for 10 to 15 days; assay type: functional; settings: time 10-15 day
[16] = tested on: U-266; test: Antitumor activity against human U266B1 cells assessed as cell growth inhibition treated for 10 to 15 days; assay type: functional; settings: time 10-15 day
[17] = tested on: MC-CAR; test: Antitumor activity against human MC-CAR cells assessed as cell growth inhibition treated for 10 to 15 days; assay type: functional; settings: time 10-15 day
[18] = Antitumor activity against human PCM6 cells assessed as cell growth inhibition treated for 10 to 15 days; assay type: functional; settings: time 10-15 day
[19] = Antitumor activity against human HCC1500 cells assessed as cell growth inhibition treated for 10 to 15 days; assay type: functional; settings: time 10-15 day
[20] = tested on: MDA-MB-175-VII; test: Antitumor activity against human MDA-MB-175-VII cells assessed as cell growth inhibition treated for 10 to 15 days; assay type: functional; settings: time 10-15 day
[21] = tested on: HCC1419; test: Antitumor activity against human HCC1419 cells assessed as cell growth inhibition treated for 10 to 15 days; assay type: functional; settings: time 10-15 day
[22] = tested on: HCC38; test: Antitumor activity against human HCC38 cells assessed as cell growth inhibition treated for 10 to 15 days; assay type: functional; settings: time 10-15 day
[23] = tested on: MDA-MB-231; test: Antitumor activity against human MDA-MB-231 cells assessed as cell growth inhibition treated for 10 to 15 days; assay type: functional; settings: time 10-15 day
[24] = tested on: MDA-MB-436; test: Antitumor activity against human MDA-MB-436 cells assessed as cell growth inhibition treated for 10 to 15 days; assay type: functional; settings: time 10-15 day
[25] = tested on: MX1; test: Antitumor activity against human MX1 cells assessed as cell growth inhibition treated for 10 to 15 days; assay type: functional; settings: time 10-15 day
[26] = tested on: LS-411N; test: Antitumor activity against human LS-411N cells assessed as cell growth inhibition treated for 10 to 15 days; assay type: functional; settings: time 10-15 day
[27] = tested on: LS-513; test: Antitumor activity against human LS-513 cells assessed as cell growth inhibition treated for 10 to 15 days; assay type: functional; settings: time 10-15 day
[28] = tested on: SNU-398; test: Antitumor activity against human SNU-398 cells assessed as cell growth inhibition treated for 10 to 15 days; assay type: functional; settings: time 10-15 day
[29] = tested on: SNU-423; test: Antitumor activity against human SNU-423 cells assessed as cell growth inhibition treated for 10 to 15 days; assay type: functional; settings: time 10-15 day
[30] = tested on: DMS-114; test: Antitumor activity against human DMS-114 cells assessed as cell growth inhibition treated for 10 to 15 days; assay type: functional; settings: time 10-15 day
[31] = Antitumor activity against human SNU-840 cells assessed as cell growth inhibition treated for 10 to 15 days; assay type: functional; settings: time 10-15 day
[32] = tested on: Panc1005; test: Antitumor activity against human Panc1005 cells assessed as cell growth inhibition treated for 10 to 15 days; assay type: functional; settings: time 10-15 day
[33] = Antitumor activity against human MDA-PCa-2b cells assessed as cell growth inhibition treated for 10 to 15 days; assay type: functional; settings: time 10-15 day
[34] = tested on: KATO III stomach cancer cell line; test: Antitumor activity against human KATO III stomach cancer cell line assessed as cell growth inhibition treated for 10 to 15 days; assay type: functional; settings: time 10-15 day
[35] = tested on: NCI-N87; test: Antitumor activity against human NCI-N87 cells assessed as cell growth inhibition treated for 10 to 15 days; assay type: functional; settings: time 10-15 day
[36] = tested on: Hs746T; test: Antitumor activity against human Hs746T cells assessed as cell growth inhibition treated for 10 to 15 days; assay type: functional; settings: time 10-15 day
[37] = tested on: MKN-45; test: Antitumor activity against human MKN-45 cells assessed as cell growth inhibition treated for 10 to 15 days; assay type: functional; settings: time 10-15 day
[38] = Cmax in Crl:CD Sprague-Dawley rat at 100 mg/kg, po administered daily for 14 days by LC/MS/MS analysis; assay type: ADME, organism-based; settings: in vivo, 336 h, time 14 day
[39] = Cmax in Crl:CD Sprague-Dawley rat at 100 mg/kg, po by LC/MS/MS analysis; assay type: ADME, organism-based; settings: in vivo
[40] = Toxicity in Crl:CD Sprague-Dawley rat assessed as eosinophil count in blood at 100 mg/kg, po administered daily for 14 days (reference value: 0.085+/-0.04 10^3/uL); assay type: organism-based; settings: in vivo, 336 h, time 14 day
[41] = Toxicity in Crl:CD Sprague-Dawley rat assessed as alkaline phosphatase level in blood at 100 mg/kg, po administered daily for 14 days (reference value: 1340+/-199 U/L); assay type: organism-based; settings: in vivo, 336 h, time 14 day
[42] = Toxicity in Crl:CD Sprague-Dawley rat assessed as inorganic phosphorus level in blood at 100 mg/kg, po administered daily for 14 days (reference value: 6.02+/-0.628 mg/dL); assay type: organism-based; settings: in vivo, 336 h, time 14 day
[43] = Toxicity in Crl:CD Sprague-Dawley rat assessed as potassium level in blood at 100 mg/kg, po administered daily for 14 days (reference value: 4.18+/-0.189 mEq/L); assay type: organism-based; settings: in vivo, 336 h, time 14 day
[44] = Toxicity in Crl:CD Sprague-Dawley rat assessed as decrease of lymphocytes in thymus cortex at 100 mg/kg, po administered daily for 14 days by hematoxylin and eosin staining based analysis; assay type: organism-based; settings: in vivo, 336 h, time 14 day

Serine/threonine-protein kinase WNK1 (Homo sapiens), sequence (Q9H4A3 whole entry, looked up, the tested form may be a part): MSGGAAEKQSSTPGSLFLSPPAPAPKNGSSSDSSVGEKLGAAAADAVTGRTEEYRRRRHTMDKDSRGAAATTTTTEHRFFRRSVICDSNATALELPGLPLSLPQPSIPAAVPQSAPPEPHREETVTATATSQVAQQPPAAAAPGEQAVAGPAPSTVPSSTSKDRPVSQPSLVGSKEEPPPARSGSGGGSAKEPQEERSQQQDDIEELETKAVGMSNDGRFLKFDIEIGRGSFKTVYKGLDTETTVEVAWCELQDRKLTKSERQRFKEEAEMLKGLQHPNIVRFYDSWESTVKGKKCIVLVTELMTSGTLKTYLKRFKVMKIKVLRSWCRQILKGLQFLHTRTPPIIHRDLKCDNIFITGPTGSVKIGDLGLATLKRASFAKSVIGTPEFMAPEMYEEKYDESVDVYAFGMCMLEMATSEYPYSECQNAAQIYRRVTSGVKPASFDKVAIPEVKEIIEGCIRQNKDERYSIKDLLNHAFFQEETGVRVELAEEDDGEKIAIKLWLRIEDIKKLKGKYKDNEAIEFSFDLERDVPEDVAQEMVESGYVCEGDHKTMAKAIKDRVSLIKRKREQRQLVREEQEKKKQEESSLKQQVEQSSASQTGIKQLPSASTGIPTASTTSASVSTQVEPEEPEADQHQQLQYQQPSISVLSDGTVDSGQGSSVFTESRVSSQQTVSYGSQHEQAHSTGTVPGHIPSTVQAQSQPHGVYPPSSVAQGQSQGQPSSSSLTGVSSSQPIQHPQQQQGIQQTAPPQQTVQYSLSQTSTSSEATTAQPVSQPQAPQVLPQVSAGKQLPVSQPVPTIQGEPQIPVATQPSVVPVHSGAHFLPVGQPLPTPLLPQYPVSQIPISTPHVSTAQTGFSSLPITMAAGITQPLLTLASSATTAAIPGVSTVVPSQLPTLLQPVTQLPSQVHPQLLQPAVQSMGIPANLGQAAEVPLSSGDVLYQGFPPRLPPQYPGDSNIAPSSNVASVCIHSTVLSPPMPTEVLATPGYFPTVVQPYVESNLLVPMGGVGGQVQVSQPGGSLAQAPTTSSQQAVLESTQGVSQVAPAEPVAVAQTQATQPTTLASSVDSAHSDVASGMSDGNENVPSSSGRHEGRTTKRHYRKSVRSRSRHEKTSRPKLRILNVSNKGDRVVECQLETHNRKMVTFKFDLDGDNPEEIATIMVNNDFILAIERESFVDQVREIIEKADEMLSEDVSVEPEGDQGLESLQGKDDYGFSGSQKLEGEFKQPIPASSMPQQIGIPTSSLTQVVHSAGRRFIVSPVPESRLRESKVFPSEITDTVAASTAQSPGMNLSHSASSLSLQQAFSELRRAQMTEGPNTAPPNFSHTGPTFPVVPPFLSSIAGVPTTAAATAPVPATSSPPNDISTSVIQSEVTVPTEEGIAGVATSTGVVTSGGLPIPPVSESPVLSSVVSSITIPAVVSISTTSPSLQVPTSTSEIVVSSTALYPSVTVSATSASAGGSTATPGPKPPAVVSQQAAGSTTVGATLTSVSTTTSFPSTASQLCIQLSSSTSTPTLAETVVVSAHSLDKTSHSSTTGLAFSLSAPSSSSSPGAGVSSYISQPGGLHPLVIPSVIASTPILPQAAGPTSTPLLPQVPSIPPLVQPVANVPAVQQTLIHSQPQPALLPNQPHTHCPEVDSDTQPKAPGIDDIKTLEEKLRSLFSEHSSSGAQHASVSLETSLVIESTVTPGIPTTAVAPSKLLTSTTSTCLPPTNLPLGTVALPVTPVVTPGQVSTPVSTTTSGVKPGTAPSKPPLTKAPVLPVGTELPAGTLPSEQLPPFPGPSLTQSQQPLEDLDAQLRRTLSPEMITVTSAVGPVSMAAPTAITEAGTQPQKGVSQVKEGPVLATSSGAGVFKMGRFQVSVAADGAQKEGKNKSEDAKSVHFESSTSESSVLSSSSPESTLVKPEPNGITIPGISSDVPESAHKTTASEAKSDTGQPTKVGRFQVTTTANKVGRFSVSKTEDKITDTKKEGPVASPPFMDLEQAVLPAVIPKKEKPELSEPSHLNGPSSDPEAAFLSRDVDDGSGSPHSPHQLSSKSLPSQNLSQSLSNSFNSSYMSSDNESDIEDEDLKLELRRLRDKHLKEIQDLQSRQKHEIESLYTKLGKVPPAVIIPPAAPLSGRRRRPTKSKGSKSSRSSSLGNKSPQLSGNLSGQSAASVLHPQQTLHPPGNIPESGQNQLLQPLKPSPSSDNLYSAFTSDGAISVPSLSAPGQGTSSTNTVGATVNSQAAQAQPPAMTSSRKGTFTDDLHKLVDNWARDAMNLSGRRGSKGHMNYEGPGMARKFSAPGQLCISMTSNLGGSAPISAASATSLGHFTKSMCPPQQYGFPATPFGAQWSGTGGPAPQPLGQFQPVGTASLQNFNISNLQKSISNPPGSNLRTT
Protein arginine N-methyltransferase 3, sequence (O60678 whole entry): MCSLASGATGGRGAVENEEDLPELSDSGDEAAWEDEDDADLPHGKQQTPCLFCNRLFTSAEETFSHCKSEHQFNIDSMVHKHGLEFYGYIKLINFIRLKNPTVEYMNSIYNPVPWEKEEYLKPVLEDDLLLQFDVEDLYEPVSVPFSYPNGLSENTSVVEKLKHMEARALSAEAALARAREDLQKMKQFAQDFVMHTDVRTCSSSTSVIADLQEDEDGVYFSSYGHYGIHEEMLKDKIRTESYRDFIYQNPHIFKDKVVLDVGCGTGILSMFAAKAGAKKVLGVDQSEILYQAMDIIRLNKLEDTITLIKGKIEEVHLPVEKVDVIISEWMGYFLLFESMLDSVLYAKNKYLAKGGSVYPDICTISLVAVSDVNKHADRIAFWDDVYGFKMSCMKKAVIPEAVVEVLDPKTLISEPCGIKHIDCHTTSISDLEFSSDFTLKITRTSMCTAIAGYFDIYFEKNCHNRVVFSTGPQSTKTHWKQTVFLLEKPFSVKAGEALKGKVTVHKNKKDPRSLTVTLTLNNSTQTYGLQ

With `Cc1cc(C)c(CNC(=O)c2cc(Cl)c3c(c2C)O[C@@](C)([C@H]2CC[C@H](N(C)C)CC2)O3)c(=O)[nH]1` [VALEMETOSTAT] the GI50 [1] was over 1 µM, the GI50 [2] was over 1 µM and the GI50 [3] was 0.0112 µM. The GI50 [4] was over 1 µM, the IC50 [5] was 100 µM and the IC50 [6] was 100 µM. The inhibition [7] was -6.7%, the inhibition [8] was 3.4% and the GI50 [9] was over 1 µM. It also gave a GI50 [10] of over 1 µM, a GI50 [11] of over 1 µM and a GI50 [12] of 0.000107 µM. The GI50 [13] was 0.388 µM, the GI50 [14] was 0.0922 µM and the GI50 [15] was 0.00718 µM. The GI50 [16] was 0.00688 µM, the GI50 [17] was 0.0313 µM and the GI50 [18] was 0.0325 µM. It also gave a GI50 [19] of 0.021 µM, a GI50 [20] of 0.0439 µM and a GI50 [21] of over 1 µM. It also gave a GI50 [22] of over 1 µM, a GI50 [23] of over 1 µM and a GI50 [24] of over 1 µM. For the same compound, the GI50 [25] was over 1 µM, the GI50 [26] was over 1 µM and the GI50 [27] was over 1 µM. It also gave a GI50 [28] of 0.00207 µM, a GI50 [29] of over 1 µM and a GI50 [30] of 0.0055 µM. The GI50 [31] was over 1 µM, the GI50 [32] was over 1 µM and the GI50 [33] was 0.0125 µM. It also gave a GI50 [34] of 0.0182 µM, a GI50 [35] of 0.536 µM and a GI50 [36] of over 1 µM. The GI50 [37] was over 1 µM.

With `Cc1cc(C)c(CNC(=O)c2cc(Br)c3c(c2C)O[C@@](C)([C@H]2CC[C@H](N(C)C)CC2)O3)c(=O)[nH]1` the Cmax [38] was 2440 nM, the Cmax [39] was 2150 nM and the Activity [40] was 0.168 10^3 /uL. It also gave an Activity [41] of 1120 U/L, an Activity [42] of 5.97 mg/dL and an Activity [43] of 4.2 mEq/L. For the same compound, the Activity [44] was “Toxic”.
